Assay results as given in patent publication US20090111801A1, “SUBSTITUTED PYRAZINONE DERIVATIVES FOR USE AS A MEDICINE” (Janssen Pharmaceutica N.V., priority 2006, published 2009).

Columns and labels:
hα2A receptor = molecular target: T1, hα2A receptor (Homo sapiens, UniProt P08913); experiment: Radioligand binding experiment for α2A-adrenoceptor ([3H]raulwolscine, CHO cell membranes); details: [3H]raulwolscine binding, read-out: h-α2A pIC50 (converted)
T1 construct: expressed in transfected cells; host or cells: CHO cells, stably transfected; membrane preparation
T1 sequence (P08913 1-465): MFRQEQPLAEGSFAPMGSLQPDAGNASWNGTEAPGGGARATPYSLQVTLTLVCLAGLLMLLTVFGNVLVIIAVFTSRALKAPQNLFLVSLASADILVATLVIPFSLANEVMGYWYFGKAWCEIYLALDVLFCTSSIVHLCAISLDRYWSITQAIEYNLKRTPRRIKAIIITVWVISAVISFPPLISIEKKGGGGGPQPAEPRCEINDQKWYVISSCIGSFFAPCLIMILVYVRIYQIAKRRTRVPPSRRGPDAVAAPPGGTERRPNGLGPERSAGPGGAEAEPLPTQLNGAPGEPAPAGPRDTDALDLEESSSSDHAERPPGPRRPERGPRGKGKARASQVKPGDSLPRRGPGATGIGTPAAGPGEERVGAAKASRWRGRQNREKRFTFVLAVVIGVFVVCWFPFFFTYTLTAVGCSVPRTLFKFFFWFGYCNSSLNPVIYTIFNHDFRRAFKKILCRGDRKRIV

hα2C receptor = molecular target: T2, hα2C receptor (Homo sapiens, UniProt P18825); experiment: Radioligand binding experiment for α2C-adrenoceptor ([3H]raulwolscine, CHO cell membranes); details: [3H]raulwolscine binding, read-out: h-α2C pIC50 (converted)
T2 construct: expressed in transfected cells; host or cells: CHO cells, stably transfected; membrane preparation
T2 sequence (P18825 1-462): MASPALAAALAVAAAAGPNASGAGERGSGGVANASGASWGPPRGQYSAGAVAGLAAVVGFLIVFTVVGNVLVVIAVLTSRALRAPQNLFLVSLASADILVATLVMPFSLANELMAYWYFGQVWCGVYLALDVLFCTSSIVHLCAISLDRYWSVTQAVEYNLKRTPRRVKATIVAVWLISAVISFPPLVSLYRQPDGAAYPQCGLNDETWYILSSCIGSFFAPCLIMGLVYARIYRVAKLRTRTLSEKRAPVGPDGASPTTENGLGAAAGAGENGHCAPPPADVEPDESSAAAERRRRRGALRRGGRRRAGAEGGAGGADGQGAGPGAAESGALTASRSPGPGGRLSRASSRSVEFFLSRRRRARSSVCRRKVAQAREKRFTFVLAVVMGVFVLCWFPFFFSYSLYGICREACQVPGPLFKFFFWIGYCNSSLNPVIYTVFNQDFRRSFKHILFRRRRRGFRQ

5HT-Transporter = molecular target: T3, 5HT-Transporter (Homo sapiens, UniProt P31645); experiment: Binding experiment for the 5HT-transporter ([3H]paroxetine, human platelet membranes); details: [3H]paroxetine 0.5 nM, read-out: h-5HTT pIC50 (converted)
T3 construct: Human platelet membranes (Oceanix Biosciences Corporation, Hanover, Md., USA) were thawed; tissue Oceanix Biosciences Corporation, Hanover, Md., USA; host or cells: human platelet membranes
In short: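 Filter-bound radioactivity from human platelet membranes incubated with [3H]paroxetine and test compound (buffer Tris-HCl 50 mM, 120 mM NaCl, 5 mM KCl) was counted.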

T3 sequence (P31645 whole entry): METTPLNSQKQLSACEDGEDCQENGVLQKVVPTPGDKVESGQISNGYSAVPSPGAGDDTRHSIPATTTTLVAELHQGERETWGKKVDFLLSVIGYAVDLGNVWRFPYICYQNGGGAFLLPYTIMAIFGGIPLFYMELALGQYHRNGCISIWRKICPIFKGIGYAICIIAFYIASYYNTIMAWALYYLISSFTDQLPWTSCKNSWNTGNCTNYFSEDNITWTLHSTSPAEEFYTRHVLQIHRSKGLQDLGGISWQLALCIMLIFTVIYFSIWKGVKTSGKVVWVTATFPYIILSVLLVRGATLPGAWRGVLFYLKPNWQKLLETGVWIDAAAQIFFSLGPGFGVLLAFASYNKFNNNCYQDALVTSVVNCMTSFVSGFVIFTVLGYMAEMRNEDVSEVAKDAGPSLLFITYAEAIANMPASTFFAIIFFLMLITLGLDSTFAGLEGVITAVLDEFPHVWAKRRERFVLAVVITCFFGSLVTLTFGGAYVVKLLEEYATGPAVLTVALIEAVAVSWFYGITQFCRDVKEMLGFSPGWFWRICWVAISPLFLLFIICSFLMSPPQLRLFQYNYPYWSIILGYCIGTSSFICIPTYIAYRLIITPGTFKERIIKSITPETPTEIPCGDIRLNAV

SMILES	IC50 (hα2A receptor) [nM]	IC50 (hα2C receptor) [nM]	IC50 (5HT-Transporter) [nM]
C/C(=C\c1ccccc1)CN1CCC(Nc2nccn(-c3ccc(CN(C)Cc4ccccc4)cc3)c2=O)CC1 [1-54]	50.1	3.98	200
CCCn1ccnc(N2CCN(C/C(C)=C/c3ccccc3)CC2)c1=O [14-2]	126	50.1	6310
C/C(=C\c1ccccc1)CN1CCC(Nc2nccn(-c3cnc4ccccc4c3)c2=O)CC1 [6-16]	63.1	15.8	316
C/C(=C\c1ccccc1)CN1CCC(Nc2nccn(Cc3ccccc3Cl)c2=O)CC1 [5-17]	63.1	20	251
COC(=O)c1ccc(-n2ccnc(NC3CCN(C/C(C)=C/c4ccccc4)CC3)c2=O)cc1 [3-12]	31.6	15.8	501
C/C(=C\c1ccccc1)CN1CCC(Nc2nccn(Cc3ccc(CNC(=O)NCCS)cc3)c2=O)CC1 [1-116]	200	126	316
CCCCS(=O)(=O)NCc1ccc(Cn2ccnc(NC3CCN(C/C(C)=C/c4ccccc4)CC3)c2=O)cc1 [1-157]	251	50.1	1000
C/C(=C\c1ccccc1)CN1CCC(Nc2nccn(Cc3cccc(F)c3)c2=O)CC1 [5-12]	100	25.1	501
C/C(=C\c1ccccc1)CN1CCN(c2nccn(CCCc3ccccc3)c2=O)CC1 [12-2]	200	63.1	1260
CCCNCc1cccc(-n2ccnc(NC3CCN(C/C(C)=C/c4ccccc4)CC3)c2=O)c1 [1-11]	3.16	1	631
CCOC(=O)CN(Cc1ccccc1)C(=O)Cn1ccnc(NC2CCN(C/C(C)=C/c3ccccc3)CC2)c1=O [1-101]	126	6.31	1580
C/C(=C\c1ccccc1)CN1CCC(Nc2nccn(CCCN(CC(=O)c3ccccc3)Cc3ccccc3)c2=O)CC1 [1-90]	126	2	631
C/C(=C\c1ccccc1)CN1CCC(Nc2nccn(CC(=O)NCc3ccc(F)cc3)c2=O)CC1 [1-55]	63.1	1.26	316
C/C(=C\c1ccccc1)CN1CCC(Nc2nccn(CC(=O)N3CCN(Cc4ccccc4)CC3)c2=O)CC1 [2-30]	79.4	2	794
COCCn1ccnc(NC2CCN(C/C=C/c3ccccc3)CC2)c1=O [16-9]	3160	631	> 10000
COCCCn1ccnc(N2CCN(C/C(C)=C/c3ccccc3)CC2)c1=O [10-1]	316	79.4	7940
C/C(=C\c1ccccc1)CN1CCC(Nc2nccn(CC(=O)N(C)c3ccccc3)c2=O)CC1 [1-41]	100	3.16	398
C/C(=C\c1ccccc1)CN1CCC(Nc2nccn(CCc3ccccc3)c2=O)CC1 [5-27]	100	15.8	398
C/C(=C\c1ccccc1)CN1CCC(Nc2nccn(CCCN(C(=O)Cc3ccccc3)c3ccccc3)c2=O)CC1 [1-88]	126	12.6	631
C/C(=C\c1ccccc1)CN1CCC(Nc2nccn(-c3ccc(NC(=O)Cc4ccccc4)cc3)c2=O)CC1 [1-81]	200	25.1	200
C/C(=C\c1ccccc1)CN1CCC(Nc2nccn(-c3cccc(CNCC4CCCO4)c3)c2=O)CC1 (stereo not drawn) [1-145]	20	1.26	794
C/C(=C\c1ccccc1)CN1CCC(Nc2nccn(-c3cccc(N(Cc4ccccc4)c4ccccc4)c3)c2=O)CC1 [1-70]	31.6	20	158
C/C(=C\c1ccccc1)CN1CCC(Nc2nccn(-c3ccc(C(=O)N4CCC(N(C)C)C4)cc3)c2=O)CC1 (stereo not drawn) [2-2]	63.1	5.01	398
